According to patent publication US20230104487A1, “11-(4-CHLOROPHENYL)-4-(2,3-DIHYDRO-1H-INDOLE-1-CARBONYL)-3,11-DIMETHYL-5,10,DIOXATRICYCLO[7.4.0.0,2,6,]TRIDECA-1,3,6,8-TETRAEN-13-ONE AND DERIVATIVES AS DESTABILIZER OF CRY1 FOR THE TREATMENT OF CIRCADIAN RHYTHM ASSOCIATED DISEASES AND DISORDERS” (KOC UNIVERSITESI, priority 2019, published 2023):
Entries after “also recorded” stand apart in the source; their conditions may differ.

Columns and labels:
CRY1 = molecular target: T1, CRY1 (Mus musculus, UniProt P97784); test: Pull-down assay with biotinylated molecule, CRY1-HIS-MYC; assay type: binding; settings: 50 μM bFORMULA I, 100 μM FORMULA I competitor
T1 sequence (P97784 1-606): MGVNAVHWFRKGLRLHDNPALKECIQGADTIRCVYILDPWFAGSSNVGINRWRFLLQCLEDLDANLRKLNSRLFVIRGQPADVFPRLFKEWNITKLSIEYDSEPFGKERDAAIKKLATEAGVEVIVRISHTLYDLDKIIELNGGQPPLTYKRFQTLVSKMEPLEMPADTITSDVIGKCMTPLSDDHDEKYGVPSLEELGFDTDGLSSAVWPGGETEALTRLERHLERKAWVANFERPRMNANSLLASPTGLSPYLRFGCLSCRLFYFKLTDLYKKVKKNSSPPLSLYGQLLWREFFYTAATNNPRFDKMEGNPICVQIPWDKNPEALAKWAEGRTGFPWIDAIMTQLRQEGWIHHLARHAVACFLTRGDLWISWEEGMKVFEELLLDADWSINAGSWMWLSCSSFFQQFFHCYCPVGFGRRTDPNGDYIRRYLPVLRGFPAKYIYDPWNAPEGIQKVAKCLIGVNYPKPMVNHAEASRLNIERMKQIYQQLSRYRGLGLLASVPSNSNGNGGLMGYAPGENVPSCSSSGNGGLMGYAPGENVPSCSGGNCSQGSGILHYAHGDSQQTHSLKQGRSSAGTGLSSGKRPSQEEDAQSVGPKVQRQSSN
Experimental: (§1) 10 μg of Cry1-pcDNA4, Cry2-pcDNA4 or Cry1-T5-pcDNA4 plasmids expressing His and Myc at the C-terminal of CRYs were transfected to HEK293T cell. After 48 h of transfection cells were harvested and lysed in lysis buffer (50 mM Tris pH 7.4, 2 mM EDTA, 1 mM MgCl2, 0.2% NP-40 (v/v), 0.1% sodium deoxycholate (w/v), 1 mM sodium orthovanadate, 1 mM sodium fluoride, and protease inhibitor cocktail (Thermo Scientific)). Lysates were incubated for 10 minutes on ice then mixed gently and incubated for another 10 minutes on ice. Then lysate was centrifuged for 10 minutes at 7000 g at 4° C. 5% of the supernatant was kept for input analysis. Remaining supernatant was divided to three and mixed with 2×binding buffer (100 mM Tris-HCl pH 7.4, 300 mM NaCl, 0.2% NP-40 (v/v), 2 mM sodium orthovanadate, 2 mM sodium fluoride, and protease inhibitor) with 1:1 ratio, incubated with rotation having either of these: a) DMSO, b) biotinylated molecule, c) biotinylated molecule and the competitor for 2 h. During this period NeutrAvidin Agarose resin (Thermo Scientific) was equilibrated with lysis buffer by mixing for 5 minutes via rotation at 4° C. three times. After each mix period, resins were centrifuged at 2500 g at 4° C. for 2 minutes and supernatant was discarded. […] Pulled-down samples were analyzed via western blot.

CRY2 = molecular target: T2, CRY2 (Mus musculus, UniProt Q9R194); test: Pull-down assay with biotinylated molecule, CRY2-HIS-MYC; assay type: binding; settings: 50 μM bFORMULA I, 100 μM FORMULA I competitor
T2 construct: expressed in transfected cells; host or cells: HEK293T (lysate)
T2 sequence (Q9R194 1-592): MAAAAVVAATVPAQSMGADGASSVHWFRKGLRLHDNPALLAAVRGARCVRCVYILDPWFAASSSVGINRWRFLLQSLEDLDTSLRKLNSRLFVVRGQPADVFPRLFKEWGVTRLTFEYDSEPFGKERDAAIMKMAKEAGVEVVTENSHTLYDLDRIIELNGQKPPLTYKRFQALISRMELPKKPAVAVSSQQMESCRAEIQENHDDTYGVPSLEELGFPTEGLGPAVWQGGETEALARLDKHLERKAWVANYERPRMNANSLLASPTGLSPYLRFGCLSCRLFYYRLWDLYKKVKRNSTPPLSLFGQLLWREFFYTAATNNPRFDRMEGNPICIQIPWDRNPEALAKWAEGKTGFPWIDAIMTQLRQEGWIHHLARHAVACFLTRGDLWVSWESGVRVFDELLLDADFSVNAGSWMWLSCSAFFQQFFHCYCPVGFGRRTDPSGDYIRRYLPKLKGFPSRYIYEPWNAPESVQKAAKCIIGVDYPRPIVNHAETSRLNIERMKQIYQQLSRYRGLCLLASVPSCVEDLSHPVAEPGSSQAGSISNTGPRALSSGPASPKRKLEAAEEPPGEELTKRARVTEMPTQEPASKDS
Experimental: as §1

C57BL/6J mice = test: Repeated dose toxicity study, 5-day maximum tolerated dose; assay type: in vivo
Experimental: The single dose toxicity data were used to assist the selection of the doses in this repeated dose toxicity study. C57BL/6J mice (n=6 per group) were treated with 40, 80 or 150 mg/kg doses of FORMULA I intraperitoneally for 5 days. Control mice (n=4) were only treated with vehicle (DMSO:Cremophor EL:0.9% NaCl; 2.5:15:82.5, v/v, i.p.). Throughout the study, animals were monitored for mortality, clinical signs, body weight changes, body temperature, food and water consumptions, behaviour assessment and gross findings at the terminal necropsy. Body weights and body temperatures of mice were measured every day as an index of toxicity. Within 48 h after the last dose of FORMULA I administration, blood was collected from mice by cardiac puncture under isoflurane anesthesia. Hematological and biochemical analyzes were performed in blood. Liver, spleen, kidneys and lungs were removed and fixed in 10% formalin solution for histological examinations.

[1] = 150 mg/kg i.p. for 5 days, 3th day of injection

Q: With `Cc1c(C(=O)N2CCc3ccccc32)oc2ccc3c(c12)C(=O)CC(C)(c1ccc(Cl)cc1)O3` (stereo not shown) [FORMULA I, 11-(4-chlorophenyl)-4-(2,3-dihydro-1H-indole-1-carbonyl)-3,11-dimethyl-5,10,dioxatricyclo[7.4.0.0,2,6,]trideca-1,3,6,8-tetraen-13-one] as the compound, how does the “physical binding to CRY1 (pull-down)” value (CRY1) read?
A: physically binds to CRY1; also recorded: binds to PHR of CRY1

Q: What about the “physical binding to CRY2 (pull-down)” value (CRY2) of the same compound?
A: does not bind to CRY2

Q: What about the body temperature (C57BL/6J mice; 40 mg/kg i.p. for 5 days) of the same compound?
A: comparable to the control animals

Q: And the clinical signs (C57BL/6J mice; 150 mg/kg i.p. for 5 days)?
A: hyporeflexia

Q: And the deaths (C57BL/6J mice; [1])?
A: 1/6

Q: What about the mortality (C57BL/6J mice; [1]) of the same compound?
A: 16.6%

Q: What about the “highest mean body weight loss” value (C57BL/6J mice; 150 mg/kg i.p., 3rd day of injection) of the same compound?
A: 6.3%

Q: And the clinical signs (C57BL/6J mice; 40 and 80 mg/kg i.p. for 5 days)?
A: no observed clinical signs

Q: And the “body temperature (mild hypothermia)” value (C57BL/6J mice; 80 and 150 mg/kg i.p., first day)?
A: 33.4-35.8 °C

Q: What about the tolerability (C57BL/6J mice; doses of 5 and 80 mg/kg (so in the source), 5 days) of the same compound?
A: well-tolerated
